# Test system: proteins that co-immunoprecipitated with DUX4-CTD constructs expressed in MB135 myoblasts
# Experiment: LC-MS of proteins co-immunoprecipitated with DUX4-CTD (Table 1) and western validation
# Format: binding, human
# Set-up: key to 4. mL1dL2 + Dox + IFNG / 4. + IFNG mix / 4. longCTD + Dox + IFNG / 3. + IFNg + Dox longCTD / 3. + Dox longCTD / 3. + IFNG longCTD: peptide-spectrum matches (PSMs) per protein
# Conditions: for 4. longCTD + Dox + IFNG: LC-MS counts of the listed protein co-immunoprecipitated with DUX4-CTD bait longCTD; for 3. + Dox longCTD / 3. + IFNg + Dox longCTD / 3. + IFNG longCTD: bait longCTD; for 3. + Dox longCTD: experiment 3, Dox only; for 3. + IFNg + Dox longCTD: experiment 3, IFNg + Dox; for SUM of PSMS: sum over all samples; for 3. + IFNG longCTD: experiment 3, IFNG only, no doxycycline (bait at background level)
# Description: As an unbiased method to identify proteins that interact with the C-terminal region of DUX4, liquid chromatography mass spectroscopy (LC-MS) was used to identify proteins that co-immunoprecipitated with DUX4-CTD constructs expressed in MB135 myoblasts. In the first experiment, MB135iDUX4-CTD cells were used, either untreated, treated with doxycycline alone, or with both doxycycline and IFNG. In the second experiment, MB135iDUX4-CTD and MB135iDUX4mL1dL2 cells were used, both treated with doxycycline and IFNG, compared to these two cell lines untreated and combined as a control. Proteins with a minimum of 2 peptide spectrum matches (PSMs) in at least one sample that were identified in both experiments were assigned to one of ten categories (see Methods) to separate candidate interactors from other categories that might be co-purified because of obligate interactions (e.g., proteasome or ribosome) or might be less likely to be physiologically relevant (e.g., cytoskeletal proteins). Candidate interactors were then ranked based on the total PSMs for that protein across all samples.
# Centrifugation at 2500 rcf at 4° C. for 5 min pelleted the nuclei, supernatant was discarded, and nuclei resuspended in 1 mL IP buffer pH 7.4 (25 mM Tris-HCl pH 7.5, 175 mM NaCl, 1 mM EDTA, 0.2% NP-40, 5% glycerol) and incubated for 1 hour at 4° C. with rotation then spun at 21000 rcf for 10 minutes at 4° C. to pellet insoluble debris. Protein concentration was determined using the Pierce BCA Protein Assay Kit (ThermoFisher, 23225). An equivalent amount of protein per sample was pre-cleared with Dynabeads Protein G (Invitrogen) bound to mouse IgG (Abcam #131368) for 1 hour at 4° C. with rotation. FLAG-tagged constructs were then immunoprecipitated with Dynabeads Protein G beads coupled to mouse anti-FLAG M2 mAb (Sigma F3165) for 3 hours at 4° C. with rotation. Beads were washed 3× with 1 mL IP buffer and eluted by adding 2× NuPage LDS Sample Buffer (Thermo Fisher, diluted from 4× with PBS) to the beads and heating for 10 minutes at 70° C.
# For LC-MS, anti-FLAG immunoprecipitation was performed with beads cross-linked to the anti-FLAG antibody and the proteins competitively eluted with FLAG peptide. Eluted protein samples were electrophoresed into a NuPage 4-12% Bis-Tris gel, excised, and processed by the Fred Hutchinson Cancer Research Center Proteomics Core. Samples were reduced, alkylated, digested with trypsin, desalted, and run on the Orbitrap Eclipse Tribid Mass Spectrometer (Thermo Fisher). Proteomics data were analyzed using Proteome Discoverer 2.4 against a Uniprot human database that included common contaminants using Sequest HT and Percolator for scoring. […] Proteins that were identified in at least one sample from both independent experiments with at least 2 PSMs in one sample were assigned to one of ten categories: 1, candidates; 2, cytoskeletal associated; 3, cytoskeletal; 4, ribosome/translation associated; 5, proteasome associated; 6, membrane or extracellular; ER, golgi, or vesicle associated; 8, lipid metabolism; 9, chaperones; 10, nuclear import or nuclear membrane associated. The proteins in category 1 were further investigated for interactions with DUX4.
# [1] = LC-MS value per protein co-immunoprecipitated from MB135 myoblasts, + IFNG mix sample (no Dox), kind of count not given
# [2] = LC-MS value per protein co-immunoprecipitated with DUX4-CTD construct mL1dL2 in MB135 myoblasts, + Dox + IFNG, kind of count not given
# [3] = LC-MS counts of the listed protein co-immunoprecipitated with DUX4-CTD bait mL1dL2, experiment 4, Dox + IFNG
# [4] = LC-MS counts of the listed protein in anti-FLAG co-IP, experiment 4, IFNG, no doxycycline, mix, MB135 myoblasts
Substance,4. mL1dL2 + Dox + IFNG [2],"4. longCTD + Dox + IFNG (experiment 4, Dox + IFNG)",3. + Dox longCTD,3. + IFNg + Dox longCTD,SUM of PSMS,further results
AHNAK,,,,,,4. + IFNG mix [1]: 1
CLTC,8,,,,,
COL1A2,,,,,,4. + IFNG mix [1]: 2
DES,10,,,,,4. + IFNG mix [1]: 24
EEF1G,1,,,,,
ENO1,3,,,,,4. + IFNG mix [1]: 6
FLNA,4,,,,,4. + IFNG mix [1]: 3
FLNC,2,,,,,4. + IFNG mix [1]: 1
FN1,,,,,,4. + IFNG mix [1]: 3
G3BP1,1,,,,,4. + IFNG mix [1]: 1
HNRNPK,12,,,,,4. + IFNG mix [1]: 3
HNRNPU,1,,,,,
MYH9,1,,,,,4. + IFNG mix [1]: 10
NES,1,,,,,4. + IFNG mix [1]: 6
NPM1,4,,,,,4. + IFNG mix [1]: 2
O60684,,1,4,4,15,4. mL1dL2 + Dox + IFNG [3]: 6
P4HB,20,,,,,4. + IFNG mix [1]: 9
P02751,,,17,48,68,
P06748,,,2,8,16,
P07237,,14,3,5,51,
P07900,,10,,9,30,4. mL1dL2 + Dox + IFNG [3]: 5; 4. + IFNG mix [4]: 6
P08123,,,1,,4,3. + IFNG longCTD: 1
P08238,,10,2,14,32,4. mL1dL2 + Dox + IFNG [3]: 6
P08670,,55,42,45,290,3. + IFNG longCTD: 39

Substance,4. mL1dL2 + Dox + IFNG [2],"4. longCTD + Dox + IFNG (experiment 4, Dox + IFNG)",3. + Dox longCTD,3. + IFNg + Dox longCTD,SUM of PSMS,further results
P10644,,3,,4,11,4. mL1dL2 + Dox + IFNG [3]: 4
P11021,,44,22,62,209,4. mL1dL2 + Dox + IFNG [3]: 49; 4. + IFNG mix [4]: 31; 3. + IFNG longCTD: 1
P11142,,105,27,54,299,4. mL1dL2 + Dox + IFNG [3]: 90; 4. + IFNG mix [4]: 21; 3. + IFNG longCTD: 2
P11940,,3,,13,21,
P16989,,,1,3,11,
P17661,,12,9,15,84,3. + IFNG longCTD: 14
P21333,,10,1,12,30,
P26641,,1,3,6,11,
P30153,,2,5,14,28,3. + IFNG longCTD: 2
P35579,,4,122,242,387,3. + IFNG longCTD: 8
P38646,,7,1,10,30,4. mL1dL2 + Dox + IFNG [3]: 11; 4. + IFNG mix [4]: 1
P40763,,,1,3,5,
P47929,,6,1,1,8,
P48681,,2,4,4,18,3. + IFNG longCTD: 1
P49368,,2,,1,7,4. mL1dL2 + Dox + IFNG [3]: 4
P50990,,3,,2,6,4. mL1dL2 + Dox + IFNG [3]: 1
P50991,,1,,1,5,4. mL1dL2 + Dox + IFNG [3]: 3
P52294,,2,4,8,15,4. mL1dL2 + Dox + IFNG [3]: 1
P61978,,6,2,8,31,
P63010,,,8,26,35,
P68363,,,22,,55,
P68371,,100,42,70,283,3. + IFNG longCTD: 11
P78371,,4,,1,7,4. mL1dL2 + Dox + IFNG [3]: 2
P78527,,2,3,18,39,

Substance,4. mL1dL2 + Dox + IFNG [2],"4. longCTD + Dox + IFNG (experiment 4, Dox + IFNG)",3. + Dox longCTD,3. + IFNg + Dox longCTD,SUM of PSMS,further results
PABPC1,5,,,,,
PLEC,16,,,,,4. + IFNG mix [1]: 3
PPP2R1A,5,,,,,
PRKDC,5,,,,,4. + IFNG mix [1]: 11
PSMA6,4,,,,,
PSMD2,3,,,,,4. + IFNG mix [1]: 1
PSME2,4,,,,,
PTBP1,1,,,,,
Q9ULV4,,7,4,13,24,
Q9Y490,,3,1,1,5,
Q00839,,,4,9,14,
Q09666,,1,8,4,14,
Q13200,,4,,3,11,
Q13283,,2,1,2,7,
Q14315,,12,2,7,24,
Q15149,,7,5,21,52,
Q15208,,6,,,11,3. + IFNG longCTD: 1
Q93008,,3,,5,15,
STAT3,1,,,,,
STK38,,,,,,4. + IFNG mix [1]: 4
TUBA1B,24,,,,,4. + IFNG mix [1]: 9
TUBB4B,47,,,,,4. + IFNG mix [1]: 13

# Source: patent US20250339531A1, “DUX4 POLYPEPTIDES AND NUCLEIC ACIDS FOR TREATING INFLAMMATORY AND AUTOIMMUNE CONDITIONS” (Fred Hutchinson Cancer Center, priority 2021, published 2025)
